In brackets after ≈: the same amount, converted by molar mass.
Columns and labels:
[1] = Intrinsic clearance in rat hepatocytes assessed per million cells; assay type: ADME, cell-based, Hepatocyte; conditions: read-out: CLH
[2] = Solubility of compound at pH 1; assay type: physicochemical; conditions: buffer
[3] = Apparent permeability across apical to basolateral side in human Caco2 cells at 5 uM measured up to 180 mins by LC-MS/MS analysis; assay type: ADME, cell-based; conditions: Caco-2
[4] = Lipophilicity, logD of compound at pH 7.4; conditions: buffer
[5] = Solubility of compound in Middlebrook 7H9 broth media containing 10% albumin-dextrose-catalase solution; assay type: physicochemical
[6] = Aqueous solubility of compound; assay type: physicochemical; conditions: buffer
[7] = Intrinsic clearance in human microsomes; assay type: ADME, Microsome; conditions: read-out: CLH
[8] = Half life in human plasma at 1 uM measured up to 3 hrs by LC-MS/MS analysis; assay type: ADME, cell-free
[9] = Half life in rat plasma at 1 uM measured up to 3 hrs by LC-MS/MS analysis; assay type: ADME, cell-free
[10] = Protein binding in human plasma at 1 uM after 18 hrs by equilibrium dialysis; assay type: ADME, cell-free; conditions: read-out: PPB (converted)
[11] = Solubility of compound at pH 7.4; assay type: physicochemical; conditions: buffer
[12] = (§1) Inhibition of replicating Mycobacterium tuberculosis H37Rv NDH assessed as cell growth inhibition after 7 days by MABA method; conditions: 168 h
[13] = Metabolic stability in human liver microsomes assessed as half life for metabolic turnover at 0.1 to 10 uM preincubated for 60 mins in presence of NADPH measured up to 60 mins by mass spectroscopic analysis; assay type: ADME, microsome
[14] = Metabolic stability in rat liver microsomes assessed as half life for metabolic turnover at 0.1 to 10 uM preincubated for 60 mins in presence of NADPH measured up to 60 mins by mass spectroscopic analysis; assay type: ADME, microsome
HepG2 = assay: Cytotoxicity against human HepG2 cells after 24 hrs in presence of glucose by MTT assay; assay type: cell-based; conditions: hepg2, 24 h
[15] = system: Mycobacterium tuberculosis H37Rv; assay: as §1
[16] = Metabolic stability in mouse liver microsomes assessed as half life for metabolic turnover at 0.1 to 10 uM preincubated for 60 mins in presence of NADPH measured up to 60 mins by mass spectroscopic analysis; assay type: ADME, microsome
[17] = system: Mycobacterium tuberculosis; assay: Growth inhibition of replicating Mycobacterium tuberculosis H37Rv at 5 uM after 7 days by MABA method relative to control; assay type: functional; conditions: 168 h, read-out: GI
[18] = Inhibition of Mycobacterium tuberculosis NDH by HTS-based assay
[19] = Retention time of compound by HPLC anlaysis
[20] = Drug level in Sprague-Dawley rat urine treated with 2-(4-(3,3-Difluoropyrrolidin-1-yl)phenyl)-5,7-difluoro-3-methylquinolin-4-yl acetate at 50 mg/kg, po via gavage up to 9 hrs by HPLC analysis; assay type: ADME, organism-based; conditions: in vivo
[21] = Drug level in Sprague-Dawley rat bile treated with 2-(4-(3,3-Difluoropyrrolidin-1-yl)phenyl)-5,7-difluoro-3-methylquinolin-4-yl acetate at 50 mg/kg, po via gavage up to 9 hrs by HPLC analysis; assay type: ADME, organism-based; conditions: in vivo
Salmonella typhimurium = assay: Mutagenicity in Salmonella typhimurium by Ames test; assay type: toxicity; conditions: salmonella enterica subsp. enterica serovar typhimurium
[22] = Intrinsic clearance in mouse microsomes; assay type: ADME, Microsome; conditions: read-out: CLH
[23] = Apparent permeability across basolateral to apical side in human Caco2 cells at 5 uM measured up to 180 mins by LC-MS/MS analysis; assay type: ADME, cell-based; conditions: Caco-2
[24] = Intrinsic clearance in rat microsomes; assay type: ADME, Microsome; conditions: read-out: CLH
[25] = system: Mycobacterium tuberculosis; assay: Growth inhibition of dormant Mycobacterium tuberculosis H37Rv incubated for 7 days under anaerobic condition followed incubation under aerobic condition for 7 days by MABA; assay type: functional; conditions: 168 h
CYP3A4 = CYP3A4 (Homo sapiens, UniProt P08684); assay: Inhibition of human microsomal CYP3A4 expressed in insect cells at 10 uM using BOMCC as substrate measured every minute for 1 hr by fluorescence-based assay; assay type: ADME; conditions: probe BOMCC
CYP3A4, sequence (P08684 whole entry): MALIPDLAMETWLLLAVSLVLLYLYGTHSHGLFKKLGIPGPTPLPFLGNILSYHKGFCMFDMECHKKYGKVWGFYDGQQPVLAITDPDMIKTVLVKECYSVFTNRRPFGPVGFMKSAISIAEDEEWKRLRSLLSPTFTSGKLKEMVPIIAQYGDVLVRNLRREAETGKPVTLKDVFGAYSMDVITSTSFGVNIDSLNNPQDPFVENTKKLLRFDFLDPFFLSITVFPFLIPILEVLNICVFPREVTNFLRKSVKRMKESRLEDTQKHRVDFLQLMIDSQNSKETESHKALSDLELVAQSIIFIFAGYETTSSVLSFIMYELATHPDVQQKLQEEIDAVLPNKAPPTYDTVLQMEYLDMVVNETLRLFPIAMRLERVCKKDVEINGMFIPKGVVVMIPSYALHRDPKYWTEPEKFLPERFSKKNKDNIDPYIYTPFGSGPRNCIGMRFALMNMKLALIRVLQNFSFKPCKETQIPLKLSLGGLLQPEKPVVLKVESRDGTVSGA

CYP2C8 = biological target: T1, CYP2C8 (Homo sapiens, UniProt P10632); assay: Inhibition of human microsomal CYP2C8 expressed in insect cells at 10 uM using DBOMF as substrate measured every minute for 1 hr by fluorescence-based assay; assay type: ADME; conditions: probe DBOMF
T1 sequence (P10632 whole entry): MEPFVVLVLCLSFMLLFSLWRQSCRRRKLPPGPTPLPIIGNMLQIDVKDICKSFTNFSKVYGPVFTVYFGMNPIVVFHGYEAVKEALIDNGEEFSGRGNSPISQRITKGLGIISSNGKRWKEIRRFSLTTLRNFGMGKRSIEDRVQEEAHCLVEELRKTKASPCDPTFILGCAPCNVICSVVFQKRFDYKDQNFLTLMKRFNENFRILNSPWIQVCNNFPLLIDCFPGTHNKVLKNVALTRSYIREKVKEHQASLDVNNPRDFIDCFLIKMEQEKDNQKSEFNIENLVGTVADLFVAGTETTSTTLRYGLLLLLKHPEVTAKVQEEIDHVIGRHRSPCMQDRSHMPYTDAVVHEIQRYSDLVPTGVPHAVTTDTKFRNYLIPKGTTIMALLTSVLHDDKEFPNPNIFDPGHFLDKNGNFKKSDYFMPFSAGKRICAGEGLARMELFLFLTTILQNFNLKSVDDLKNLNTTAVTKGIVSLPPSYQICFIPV

[26] = biological target: Voltage-gated inwardly rectifying potassium channel KCNH2 (Homo sapiens, UniProt Q12809); assay: Inhibition of human ERG
Voltage-gated inwardly rectifying potassium channel KCNH2, sequence (Q12809 whole entry): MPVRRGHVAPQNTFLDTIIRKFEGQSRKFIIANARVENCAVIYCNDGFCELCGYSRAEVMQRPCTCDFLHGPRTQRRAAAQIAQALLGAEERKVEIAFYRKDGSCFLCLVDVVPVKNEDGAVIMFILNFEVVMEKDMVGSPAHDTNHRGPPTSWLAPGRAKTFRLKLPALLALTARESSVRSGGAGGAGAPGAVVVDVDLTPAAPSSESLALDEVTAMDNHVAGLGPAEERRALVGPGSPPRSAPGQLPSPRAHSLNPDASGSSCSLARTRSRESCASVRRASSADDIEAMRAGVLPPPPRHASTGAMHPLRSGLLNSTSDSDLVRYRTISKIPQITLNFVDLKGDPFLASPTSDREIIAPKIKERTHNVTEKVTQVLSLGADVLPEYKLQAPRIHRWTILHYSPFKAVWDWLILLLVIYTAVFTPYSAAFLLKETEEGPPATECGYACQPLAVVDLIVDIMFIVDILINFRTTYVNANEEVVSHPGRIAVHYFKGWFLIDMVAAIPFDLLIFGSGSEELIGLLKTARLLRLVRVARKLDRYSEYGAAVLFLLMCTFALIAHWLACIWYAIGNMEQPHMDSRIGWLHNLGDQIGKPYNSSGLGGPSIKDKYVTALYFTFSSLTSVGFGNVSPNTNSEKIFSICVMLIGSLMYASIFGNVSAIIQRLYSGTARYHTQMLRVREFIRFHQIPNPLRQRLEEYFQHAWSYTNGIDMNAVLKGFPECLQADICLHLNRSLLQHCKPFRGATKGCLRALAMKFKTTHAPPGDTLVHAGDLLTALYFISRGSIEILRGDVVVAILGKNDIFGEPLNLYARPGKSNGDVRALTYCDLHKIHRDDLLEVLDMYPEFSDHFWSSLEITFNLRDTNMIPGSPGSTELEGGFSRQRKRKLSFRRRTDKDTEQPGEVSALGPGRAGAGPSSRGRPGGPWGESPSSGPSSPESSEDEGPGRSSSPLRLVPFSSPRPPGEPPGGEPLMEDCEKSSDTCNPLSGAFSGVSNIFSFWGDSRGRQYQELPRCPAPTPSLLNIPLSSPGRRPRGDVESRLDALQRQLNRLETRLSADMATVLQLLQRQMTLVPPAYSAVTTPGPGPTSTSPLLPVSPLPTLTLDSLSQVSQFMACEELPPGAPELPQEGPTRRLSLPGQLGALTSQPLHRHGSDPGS

CYP2C9 = CYP2C9 (Homo sapiens, UniProt P11712); assay: Inhibition of human microsomal CYP2C9 expressed in insect cells at 10 uM using OOMR as substrate measured every minute for 1 hr by fluorescence-based assay; assay type: ADME; conditions: probe OOMR
CYP2C9, sequence (P11712 whole entry): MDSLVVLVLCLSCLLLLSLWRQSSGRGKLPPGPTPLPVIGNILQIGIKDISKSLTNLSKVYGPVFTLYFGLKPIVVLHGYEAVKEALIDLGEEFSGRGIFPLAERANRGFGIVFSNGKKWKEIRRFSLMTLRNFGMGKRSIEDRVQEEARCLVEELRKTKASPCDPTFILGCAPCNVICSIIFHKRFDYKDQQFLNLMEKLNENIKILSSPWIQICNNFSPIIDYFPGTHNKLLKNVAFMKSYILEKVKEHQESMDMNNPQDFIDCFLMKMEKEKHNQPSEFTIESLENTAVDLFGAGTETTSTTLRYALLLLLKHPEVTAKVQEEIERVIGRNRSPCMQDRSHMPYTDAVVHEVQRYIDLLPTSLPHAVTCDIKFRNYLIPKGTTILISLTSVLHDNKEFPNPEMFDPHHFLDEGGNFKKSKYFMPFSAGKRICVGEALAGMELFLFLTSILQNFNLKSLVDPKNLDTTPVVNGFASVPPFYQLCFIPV

CYP2D6 = CYP2D6 (Homo sapiens, UniProt P10635); assay: Inhibition of human microsomal CYP2D6 expressed in insect cells at 10 uM using MOBFC as substrate measured every minute for 1 hr by fluorescence-based assay; assay type: ADME; conditions: probe MOBFC
CYP2D6, sequence (P10635 whole entry): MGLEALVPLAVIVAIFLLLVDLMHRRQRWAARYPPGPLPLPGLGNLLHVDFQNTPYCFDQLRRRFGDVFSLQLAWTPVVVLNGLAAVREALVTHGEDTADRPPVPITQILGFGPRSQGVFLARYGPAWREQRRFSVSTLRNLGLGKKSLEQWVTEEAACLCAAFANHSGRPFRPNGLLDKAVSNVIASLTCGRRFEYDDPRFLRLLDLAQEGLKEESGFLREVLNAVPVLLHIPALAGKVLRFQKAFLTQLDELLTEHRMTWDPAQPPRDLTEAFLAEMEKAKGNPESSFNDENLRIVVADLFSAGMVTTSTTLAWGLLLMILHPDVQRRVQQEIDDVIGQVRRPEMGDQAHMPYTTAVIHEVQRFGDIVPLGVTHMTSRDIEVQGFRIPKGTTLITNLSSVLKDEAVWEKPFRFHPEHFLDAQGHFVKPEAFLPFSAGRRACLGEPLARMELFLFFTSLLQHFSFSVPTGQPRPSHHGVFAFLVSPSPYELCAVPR

CYP3A5 = CYP3A5 (Homo sapiens, UniProt P20815); assay: Inhibition of human microsomal CYP3A5 expressed in insect cells at 10 uM using BOMCC as substrate measured every minute for 1 hr by fluorescence-based assay; assay type: ADME; conditions: probe BOMCC
CYP3A5, sequence (P20815 whole entry): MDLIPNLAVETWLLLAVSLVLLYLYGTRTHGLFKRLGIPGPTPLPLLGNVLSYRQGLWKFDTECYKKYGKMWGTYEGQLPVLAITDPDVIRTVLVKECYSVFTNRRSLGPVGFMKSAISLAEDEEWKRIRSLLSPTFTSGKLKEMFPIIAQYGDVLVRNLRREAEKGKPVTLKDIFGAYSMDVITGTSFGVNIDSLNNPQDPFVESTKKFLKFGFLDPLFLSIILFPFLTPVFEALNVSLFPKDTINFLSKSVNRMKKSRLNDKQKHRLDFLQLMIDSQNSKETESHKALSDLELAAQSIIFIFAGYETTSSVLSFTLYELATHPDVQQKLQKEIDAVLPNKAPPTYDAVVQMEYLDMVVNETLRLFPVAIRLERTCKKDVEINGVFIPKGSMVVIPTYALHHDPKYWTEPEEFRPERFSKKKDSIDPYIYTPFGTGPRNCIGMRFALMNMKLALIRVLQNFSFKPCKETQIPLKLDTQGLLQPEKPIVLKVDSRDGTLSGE

SMILES | hepatocyte CLint [1] [µL/min/1e6 cells] | solubility [2] [µg/mL] | Papp A→B at 3 h, 5 µM [3] [×10⁻⁶ cm/s] | logD [4] | solubility [5] [µg/mL] | solubility [6] [µM] | microsomal CLint [7] [µL/min/mg] | half-life at 1 µM [8] [min] | half-life at 1 µM [9] [min] | fraction unbound at 18 h, 1 µM [10] | solubility [11] [µg/mL] | IC50 [12] [nM] | half-life at up to 10 µM [13] [min] | half-life at up to 10 µM [14] [min] | Activity (HepG2) [µM] | IC90 [15] [nM] | half-life at up to 10 µM [16] [min] | also measured
Cc1c(-c2ccc(N3CC[C@H](F)C3)cc2)[nH]c2cc(F)cc(F)c2c1=O | 150 | < 1 | 15.5 | 3.6 | 2.5 (≈ 6.98 µM) | 1 (≈ 0.358 µg/mL) | 197 | > 180 | > 180 | 0.0103 to 0.014 | < 1 | 1800 | – | – | – | – | – | –
Cc1c(-c2ccc(N3CC[C@@H](F)C3)cc2)[nH]c2cc(F)cc(F)c2c1=O | 118 | – | – | 3.8 | – | 0.9 (≈ 0.323 µg/mL) | 175 | – | – | 0.009 | – | 230 to 231 | 10.2 | 10.6 | 150.6 | 500 | 4.4 | –
Cc1c(-c2ccc(N3CCC[C@H](C)C3)cc2)[nH]c2cc(F)cc(F)c2c1=O | 91.2 | – | – | > 3.2 | – | < 0.3 | > 300 | – | – | 0.007 | – | 400 to 470 | 8.54 | 5.72 | 85.54 | 660 | 7.65 | –
COc1ccc2c(=O)c(C)c(-c3ccc(N4CCCCC4)cc3)[nH]c2c1 | – | – | – | – | – | – | – | – | – | – | – | 730 | – | – | – | – | – | inhibition of growth at 5 µM [17]: > 50%; IC50 [18]: 730 nM
Cc1c(-c2ccc(N3CCCCC3)cc2)[nH]c2ccccc2c1=O | – | – | – | – | – | – | – | – | – | – | – | 1500 | – | – | – | – | – | inhibition of growth at 5 µM [17]: > 50%; IC50 [18]: 1500 nM
Cc1c(-c2ccc(N3CC(O)C(F)(F)C3)cc2)nc2cc(F)cc(F)c2c1O (stereo not drawn) | – | – | – | – | – | – | – | – | – | – | – | – | – | – | – | – | – | Retention time [19]: 10.1 min; Drug metabolism [20]: Metabolite_Detected; Drug metabolism [21]: Metabolite_Detected
Cc1c(-c2ccc(N3CCC(F)(F)C3)cc2)[nH]c2cc(F)cc(F)c2c1=O | 52.2 | < 1 | 10 | – | 55 (≈ 146 µM) | 0.2 (≈ 0.0753 µg/mL) | 9.52 to 89.7 | > 180 | > 180 | 0.003 to 0.027 | < 1 | 525 to 530 | 72.8 | 61.6 | > 100 | 1100 | 115 | Activity (Salmonella typhimurium): Non-Toxic; Retention time [19]: 11.4 min; microsomal CLint [22]: 6.03 µL/min/mg; Papp B→A at 3 h, 5 µM [23]: 9.8 ×10⁻⁶ cm/s; microsomal CLint [24]: 11.2 µL/min/mg; Drug metabolism [20]: Metabolite_Detected; Drug metabolism [21]: Metabolite_Detected; IC90 [25]: 76 nM; inhibition at 1 h, 10 µM (CYP3A4): 0%; inhibition at 1 h, 10 µM (CYP2C8): 38%; IC50 [26]: > 25 µM; inhibition at 1 h, 10 µM (CYP2C9): 0%; inhibition at 1 h, 10 µM (CYP2D6): 0%; inhibition at 1 h, 10 µM (CYP3A5): 0%
Cc1c(-c2ccc(N3CCCC(F)C3)cc2)[nH]c2cc(F)cc(F)c2c1=O (stereo not drawn) | – | > 150 | 22.9 | – | 10 (≈ 26.9 µM) | – | – | > 180 | > 180 | 0.0155 | < 1 | 300 to 310 | 7.8 | 10.1 | 188.1 | 560 | 6.8 | –
Cc1c(-c2ccc(-n3cccc3)cc2)[nH]c2cc(F)cc(F)c2c1=O | – | 5.1 (≈ 15.2 µM) | 31 | – | 61 (≈ 181 µM) | – | – | > 180 | > 180 | 0.039 | 3.6 (≈ 10.7 µM) | 432 to 440 | 10.2 | 30.1 | 141 | 690 | 20.7 | –
Cc1c(-c2ccc(N3CCCCCC3)cc2)[nH]c2cc(F)cc(F)c2c1=O | 243 | – | – | 4.8 | – | < 0.1 | > 300 | – | – | 0.006 | – | 490 | – | – | – | – | – | –
OCc1c(-c2ccc(N3CC(O)C(F)(F)C3)cc2)nc2cc(F)cc(F)c2c1O (stereo not drawn) | – | – | – | – | – | – | – | – | – | – | – | – | – | – | – | – | – | Retention time [19]: 8.6 min; Drug metabolism [20]: Metabolite_Detected; Drug metabolism [21]: Metabolite_Detected

— ChEMBL document CHEMBL4049411, “Rational Design, Synthesis, and Biological Evaluation of Heterocyclic Quinolones Targeting the Respiratory Chain of Mycobacterium tuberculosis” (J Med Chem, 2017)
